{"source": "patent US20200347043A1", "about": "“MODULATORS OF THE INTEGRATED STRESS PATHWAY” (Calico Life Sciences LLC, priority 2019, published 2020)"}
{"test_system": "HEK293T cells carrying the ATF4 luciferase reporter", "assay": "ATF4-Luc assay (in vitro model of VWMD)", "assay_type": "cell-based, human", "conditions": "Homo sapiens, HEK-293T, 1 μg/mL tunicamycin, 7 hours, One Glo luminescence", "method_in_brief": "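Tunicamycin (1 μg/mL) stress with co-added compound for 7 hours in HEK293T cells stably carrying an ATF4 5′-UTR–luciferase reporter. EC50 values come from the luminescent signal (One Glo).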", "units": {"EC50": "nM"}}
{"smiles": "O=C(NC12CC(c3ncc([C@H]4C[C@@H](OC(F)(F)F)C4)o3)(C1)C2)[C@H]1C[C@@H](O)c2cc(Cl)ccc2O1", "note": "[Compound 288, (2R,4R)-6-chloro-4-hydroxy-N-(3-{5-[cis-3-(trifluoromethoxy)cyclobutyl]-1,3-oxazol-2-yl}bicyclo[1.1.1]pentan-1-yl)-3,4-dihydro-2H-1-benzopyran-2-carboxamide]", "EC50": "10 to 50"}
{"smiles": "O=C(NC12CC(c3ncc([C@H]4C[C@@H](OC(F)(F)F)C4)[nH]3)(C1)C2)[C@H]1C[C@@H](O)c2cc(Cl)ccc2O1", "note": "[Compound 289, (2R,4R)-6-chloro-4-hydroxy-N-(3-{5-[cis-3-(trifluoromethoxy)cyclobutyl]-1H-imidazol-2-yl}bicyclo[1.1.1]pentan-1-yl)-3,4-dihydro-2H-1-benzopyran-2-carboxamide]", "EC50": "10 to 50"}
{"smiles": "O=C(NC12CC(n3cc(C4CCC4)cn3)(C1)C2)[C@H]1C[C@@H](O)c2cc(Cl)ccc2O1", "note": "[Compound 290, (2R,4R)-6-chloro-N-[3-(4-cyclobutyl-1H-pyrazol-1-yl)bicyclo[1.1.1]pentan-1-yl]-4-hydroxy-3,4-dihydro-2H-1-benzopyran-2-carboxamide]", "EC50": "50 to 250"}
{"smiles": "O=C(NC12CC(n3cc(C4CCC4)cn3)(C1)C2)[C@@H]1C[C@@H](O)c2cc(Cl)ccc2O1", "note": "[Compound 291, (2S,4R)-6-chloro-N-[3-(4-cyclobutyl-1H-pyrazol-1-yl)bicyclo[1.1.1]pentan-1-yl]-4-hydroxy-3,4-dihydro-2H-1-benzopyran-2-carboxamide]", "EC50": "500 to 2000"}
{"smiles": "O=C(N[C@@H]1CC[C@@H](c2ncc([C@H]3C[C@@H](OC(F)(F)F)C3)o2)OC1)[C@H]1C[C@@H](O)c2cc(Cl)ccc2O1", "note": "[Compound 292, (2R,4R)-6-chloro-4-hydroxy-N-[(3R,6S)-6-{5-[3-(trifluoromethoxy)cyclobutyl]-1,3-oxazol-2-yl}oxan-3-yl]-3,4-dihydro-2H-1-benzopyran-2-carboxamide]", "EC50": "< 10"}
{"smiles": "O=C(NC12CC(c3cn([C@H]4C[C@@H](OC(F)(F)F)C4)cn3)(C1)C2)[C@H]1C[C@@H](O)c2cc(Cl)ccc2O1", "note": "[Compound 294, (2R,4R)-6-chloro-4-hydroxy-N-(3-{1-[cis-3-(trifluoromethoxy)cyclobutyl]-1H-imidazol-4-yl}bicyclo[1.1.1]pentan-1-yl)-3,4-dihydro-2H-1-benzopyran-2-carboxamide]", "EC50": "10 to 50"}
{"smiles": "O=C(CO[C@H]1C[C@@H](OC(F)(F)F)C1)NC12CC(NC(=O)[C@@H]3C[C@H](O)c4cc(Cl)ccc4O3)(C1)C2", "note": "[Compound 295, (2S,4S)-6-chloro-4-hydroxy-N-[3-(2-{[cis-3-(trifluoromethoxy)cyclobutyl]oxy}acetamido)bicyclo[1.1.1]pentan-1-yl]-3,4-dihydro-2H-1-benzopyran-2-carboxamide]", "EC50": "10 to 50"}
{"smiles": "O=C(NC12CCC(c3ncc([C@H]4C[C@@H](OC(F)(F)F)C4)o3)(CC1)CC2)[C@H]1C[C@@H](O)c2cc(Cl)ccc2O1", "note": "[Compound 297, (2R,4R)-6-chloro-4-hydroxy-N-(4-{5-[cis-3-(trifluoromethoxy)cyclobutyl]-1,3-oxazol-2-yl}bicyclo[2.2.2]octan-1-yl)-3,4-dihydro-2H-1-benzopyran-2-carboxamide]", "EC50": "10 to 50"}
{"smiles": "O=C(NC12CC(c3ccn([C@H]4C[C@@H](OC(F)(F)F)C4)n3)(C1)C2)[C@H]1C[C@@H](O)c2cc(Cl)ccc2O1", "note": "[Compound 298, (2R,4R)-6-chloro-4-hydroxy-N-(3-{1-[cis-3-(trifluoromethoxy)cyclobutyl]-1H-pyrazol-3-yl}bicyclo[1.1.1]pentan-1-yl)-3,4-dihydro-2H-1-benzopyran-2-carboxamide]", "EC50": "50 to 250"}
{"smiles": "O=C(NC12CC(c3csc(O[C@H]4C[C@@H](OC(F)(F)F)C4)n3)(C1)C2)[C@H]1C[C@@H](O)c2cc(Cl)ccc2O1", "note": "[Compound 300, (2R,4R)-6-chloro-4-hydroxy-N-[3-(2-{[cis-3-(trifluoromethoxy)cyclobutyl]oxy}-1,3-thiazol-4-yl)bicyclo[1.1.1]pentan-1-yl]-3,4-dihydro-2H-1-benzopyran-2-carboxamide]", "EC50": "50 to 250"}
{"smiles": "O=C(NC12CC(Oc3nc([C@H]4C[C@@H](OC(F)(F)F)C4)cs3)(C1)C2)[C@H]1C[C@@H](O)c2cc(Cl)ccc2O1", "note": "[Compound 301, (2R,4R)-6-chloro-4-hydroxy-N-[3-({4-[cis-3-(trifluoromethoxy)cyclobutyl]-1,3-thiazol-2-yl}oxy)bicyclo[1.1.1]pentan-1-yl]-3,4-dihydro-2H-1-benzopyran-2-carboxamide]", "EC50": "500 to 2000"}
{"smiles": "O=C(NC12CC(n3cc(-c4ccc(OC(F)(F)F)cc4)cn3)(C1)C2)[C@H]1C[C@@H](O)c2cc(Cl)ccc2O1", "note": "[Compound 302, (2R,4R)-6-chloro-4-hydroxy-N-(3-{4-[4-(trifluoromethoxy)phenyl]-1H-pyrazol-1-yl}bicyclo[1.1.1]pentan-1-yl)-3,4-dihydro-2H-1-benzopyran-2-carboxamide]", "EC50": "< 10"}
{"smiles": "O=C(N[C@H]1CC[C@H](N2CCN(c3cnc(C(F)F)cn3)C2=O)CC1)[C@H]1C[C@@H](O)c2cc(Cl)ccc2O1", "note": "[Compound 303, (2R,4R)-6-chloro-N-[trans-4-{3-[5-(difluoromethyl)pyrazin-2-yl]-2-oxoimidazolidin-1-yl}cyclohexyl]-4-hydroxy-3,4-dihydro-2H-1-benzopyran-2-carboxamide]", "EC50": "50 to 250"}
{"smiles": "O=C(N[C@H]1C[C@H]2C[C@@H]1C[C@@H]2n1cnc(-c2ccc(F)c(F)c2)c1)[C@H]1C[C@@H](O)c2cc(Cl)ccc2O1", "note": "[Compound 304, (2R,4R)-6-chloro-N-{(1R,2S,4R,5S)-5-[4-(3,4-difluorophenyl)-1H-imidazol-1-yl]bicyclo[2.2.1]heptan-2-yl}-4-hydroxy-3,4-dihydro-2H-1-benzopyran-2-carboxamide]", "EC50": "< 10"}
{"smiles": "O=C(NC12CC(c3cnc(-c4ccc(Cl)c(F)c4)o3)(C1)C2)[C@H]1C[C@@H](O)c2cc(Cl)ccc2O1", "note": "[Compound 305, (2R,4R)-6-chloro-N-{3-[2-(4-chloro-3-fluorophenyl)-1,3-oxazol-5-yl]bicyclo[1.1.1]pentan-1-yl}-4-hydroxy-3,4-dihydro-2H-1-benzopyran-2-carboxamide]", "EC50": "< 10"}
{"smiles": "O=C(NC12CC(N3CC(c4ccc(Cl)cc4)CC3=O)(C1)C2)[C@H]1C[C@@H](O)c2cc(Cl)ccc2O1", "note": "(stereo partly drawn) [Compound 307, (2R,4R)-6-chloro-N-{3-[4-(4-chlorophenyl)-2-oxopyrrolidin-1-yl]bicyclo[1.1.1]pentan-1-yl}-4-hydroxy-3,4-dihydro-2H-1-benzopyran-2-carboxamide]", "EC50": "< 10"}
{"smiles": "O=C(NC12CC(n3cc(-c4ccc(OC(F)(F)F)cn4)cn3)(C1)C2)[C@H]1C[C@@H](O)c2cc(Cl)ccc2O1", "note": "[Compound 308, (2R,4R)-6-chloro-4-hydroxy-N-(3-{4-[5-(trifluoromethoxy)pyridin-2-yl]-1H-pyrazol-1-yl}bicyclo[1.1.1]pentan-1-yl)-3,4-dihydro-2H-1-benzopyran-2-carboxamide]", "EC50": "< 10"}
{"smiles": "O=C(N[C@H]1CC[C@H](N2CCN(c3ccc(C(F)(F)F)nc3)C2=O)CC1)[C@@H]1C[C@@H](O)c2cc(Cl)ccc2O1", "note": "[Compound 309, (2S,4R)-6-chloro-4-hydroxy-N-[trans-4-{2-oxo-3-[6-(trifluoromethyl)pyridin-3-yl]imidazolidin-1-yl}cyclohexyl]-3,4-dihydro-2H-1-benzopyran-2-carboxamide]", "EC50": "> 2000"}
{"smiles": "O=C(N[C@H]1CC[C@H](N2CCN(c3ccc(C(F)(F)F)nc3)C2=O)CC1)[C@H]1C[C@@H](O)c2cc(Cl)ccc2O1", "note": "[Compound 310]", "EC50": "50 to 250"}
